A short description of this data set: gradient 5% acetonitrile 3 min, to 50% in 2 min, to 85% in 15 min, held 3 min, 100 µL/min. The following applies: column: Zorbax Extend-C18 2.1 x 50 mm; eluents: water / acetonitrile, 0.1% formic acid. Summed up: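 The mobile phases were water and acetonitrile, each with 0.1% formic acid, pumped at 100 μL/min through a Zorbax Extend-C18 column (2.1 × 50 mm, 1.8 μm). Pure standards were injected as mixtures of ~100 molecules and detected by a quadrupole time-of-flight mass spectrometer in positive and negative ionization mode. Retention time came from computationally picked adduct peaks, each inspected by hand.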
The molecule `COC(=O)c1c(N)n(C(C)c2ccccc2)c2nc3ccccc3nc12` (stereo not drawn) displayed an RP-LC retention time of 727 s.
As for `O=C(CCCn1c(=O)c2cccn2c2ccc(F)cc21)NCCCN1CCOCC1`, the RP-LC retention time was 603 s.
In the case of `COc1ccccc1N1CCN(c2cc(SCC(=O)Nc3cccc(Cl)c3)ncn2)CC1` it was 1030 s; in that of `O=C(Cn1cccc1-c1nc(-c2ccc(F)cc2)no1)N1CCc2ccccc21`, 1140 s.
In the case of `CC(NC(=O)C1CCN(c2cncnc2N2CCOCC2)CC1)c1ccc(F)cc1` (stereo not drawn) it was 628 s; in that of `CCn1c(-c2nonc2N)nc2c(C#CC(C)(C)O)ncc(OC[C@H]3CCCNC3)c21`, 645 s.
With `CC(C)c1ccc(S(=O)(=O)N2CCC3(CCN(c4cccnc4)C3)C2)cc1` (stereo not drawn), the RP-LC retention time came to 736 s.
In turn, `COC(=O)c1cccc(NC(=O)Cn2nc3c(N4CCC(C)CC4)nccn3c2=O)c1` gave an RP-LC retention time of 786 s.
With `Cc1noc(C)c1CCNC(=O)CCCN1C(=O)CCn2nc(-c3cn(C)c4ccccc34)cc21` the figure was 732 s.
Turning to `COCC(=O)Nc1cnc(-c2ccc(C(F)(F)F)cc2)nc1`, the RP-LC retention time was determined as 922 s.
With `COc1cccc(CNC2=NCCNC23CCN(S(=O)(=O)c2c(C)cc(C)cc2C)CC3)c1`, the RP-LC retention time was 826 s.
With `CC(C)S(=O)(=O)N[C@H]1CCOC[C@@H]1c1ccc(-c2ccc(C#N)s2)cc1` the figure was 958 s; with `O=C1N(C2CCN(Cc3ccccn3)CC2)C(c2ccncc2)C12CCCCC2` (stereo not drawn), 556 s; with `Cc1cc(Cn2cnc3c2C[C@@H](C(=O)O)N(C(=O)C(c2ccccc2)c2ccccc2)C3)ccc1N`, 700 s.
In the case of `Cc1nn(C)c2nc(OC(C)C(=O)NCc3ccc(Cl)cc3)cc(C(F)(F)F)c12` (stereo not drawn) it was 1020 s; in that of `CCOC(=O)CNC(=O)NCCn1c(-c2ccc(F)cc2)nc2ccccc21`, 592 s.
In the case of `COc1ccc(NC(=O)N2CC(N(Cc3ccncc3)CC(C)C)C2)cc1OC` it was 622 s; in that of `CCC(C)NC(=O)Cn1c(=O)cc(-c2nc(C3CC3)no2)c2ccccc21` (stereo not drawn), 863 s; in that of `COc1ccc(-n2ccn(CC(=O)Nc3ccc(Br)cc3)c(=O)c2=O)cc1`, 728 s.
As to `Cc1ccc(-n2nnc(C(=O)O)c2C)c(F)c1`, the RP-LC retention time amounted to 705 s.
In the case of `CCN(CC)CCNC(=O)C1CCCN(c2ncc(-c3cccc(F)c3)cn2)C1` (stereo not drawn) it was 688 s; in that of `CCCn1ncc(N2CCC(C(=O)NCCc3cccs3)CC2)cc1=O`, 714 s.
Turning to `O=[N+]([O-])c1ccc(-c2csc(Nc3ccc4c(c3)OCO4)n2)cc1`, the RP-LC retention time stood at 1110 s.
In the case of `CN(CC(=O)N1CCOCC1)c1nc(C2CC2)nc2c1CCC2` it was 560 s.
Consider `CC(C)N1C(=O)c2cccnc2Sc2cc(C(=O)N3CCCCC3)ccc21`, for which the RP-LC retention time was found to be 769 s.
On to `CCC(CC)C(c1ccc(Nc2nc3ccccc3s2)cc1)n1cncn1` (stereo not drawn), for which the RP-LC retention time was found to be 1150 s.
With `CCCC(=O)Nc1ccc2c(c1)CN(C(=O)c1ccc(F)c(F)c1)C(C(=O)N(C)C)C2` (stereo not drawn) the figure was 736 s; with `Cc1ccn2c(NC(=O)c3ccc(Cl)c([N+](=O)[O-])c3)c(-c3ccccc3)nc2c1`, 700 s; with `O=C(NCCc1csc(-c2cccc(F)c2)n1)Nc1c(F)cccc1F`, 810 s.
For `CCS(=O)(=O)N1CC(=O)N(c2cccc(F)c2)C(C)(C(=O)NC2CCCCC2)C1` (stereo not drawn), the RP-LC retention time turned out to be 817 s.
In the case of `CCc1noc(-c2ccc(-n3cnc(C(=O)NC4CCCCC4)c3)nc2)n1` it was 1110 s; in that of `COc1ccc(CNC(=O)C2(C)CCN(S(=O)(=O)c3c(C)cc(C)cc3C)CC2)cc1`, 912 s.
With `CCCCN(CC)c1nc(-c2ccc(C)cc2)nc2ccccc12` the figure was 941 s; with `O=C(c1ccc(OC(F)(F)F)cc1)N1C[C@@H]2C[C@H]1C[C@@H]2NS(=O)(=O)c1ccccc1`, 884 s.
With `CCC(=O)NCc1nc2c(n1C)CN(S(=O)(=O)c1cc(F)ccc1F)CC2` the figure was 557 s.
`O=C(CCn1c(N2CCCCC2)nc2ccccc2c1=O)N1CCN(c2ccccn2)CC1` displayed an RP-LC retention time of 630 s.
With `CC(C)c1ccc(S(=O)(=O)N2CCC(C)(C(=O)NCc3ccccc3)CC2)cc1` the figure was 1050 s.
`COCCCNC(=O)C1CCN(C(=O)c2cc3oc(C)cc3n2Cc2c(F)cccc2Cl)CC1`: the RP-LC retention time came out at 826 s.
`COC(=O)N1CCc2ccccc2C1C(=O)Nc1ccccc1C(F)(F)F` (stereo not drawn) had an RP-LC retention time of 877 s.
`Cc1ccc(S(=O)(=O)N2CCCC2c2nc(-c3ccc(Cl)cc3)no2)cc1F` (stereo not drawn) displayed an RP-LC retention time of 1230 s.
In the case of `CCOC(=O)C1=C(CN2CCN(c3ccccn3)CC2)NC(=O)NC1c1cccs1` (stereo not drawn) it was 919 s; in that of `CCn1cnc2ccc(C(=O)NC3CCCC3)cc2c1=O`, 688 s.
In the case of `CSc1n[nH]c(-c2cccs2)n1` it was 714 s; in that of `CN(C)c1cc(N2CCCC(NC(=O)Cc3ccccc3)C2)ncn1` (stereo not drawn), 795 s.
Turning to `Cc1cn(C)nc1C(=O)Nc1nnc(-c2cccs2)o1`, the RP-LC retention time came out at 647 s.
In the case of `O=C(C1CC1)N1CCc2sc(S(=O)(=O)Nc3cc(Cl)ccc3F)cc2C1` it was 868 s.
For `Cc1sc(C)c(S(=O)(=O)Nc2ccc(Cl)cc2)c1-c1cc(C(F)(F)F)on1`, the RP-LC retention time was 1210 s.
In turn, `CC(C)NC(=O)c1c2c(nc3ccccc13)CCC2` registered an RP-LC retention time of 593 s.
`O=S(=O)(c1ccccc1)N1CCc2nc(-c3ccc(F)cc3)ncc2C1` showed an RP-LC retention time of 1040 s.
`O=C(Nc1cc(F)ccc1F)N1CCC(N2CCN(Cc3ccc(F)cc3)C2=O)CC1`: the RP-LC retention time turned out to be 850 s.
The molecule `Cc1ccn2c(=O)cc(CN(C)Cc3ccc(Cl)cc3)nc2c1` yielded an RP-LC retention time of 631 s.
Take `Cc1ccc2c(ccn2CCNC(=O)C2CC(=O)N(c3n[nH]c4ccccc34)C2)c1` (stereo not drawn): the RP-LC retention time is 766 s.
In the case of `O=c1n(Cc2c(F)cccc2Cl)nc2ccc(S(=O)(=O)N3CCOCC3)cn12` it was 821 s; in that of `NC(=O)c1ccc2c(c1)n(Cc1ccccc1)c(=O)c1ccnn12`, 674 s; in that of `Cc1cccc(NC(=O)Cn2nc(N3CCCC(C)C3)c3ccccc3c2=O)c1` (stereo not drawn), 1090 s.
With `COC(=O)C1=C(CN2CCOCC2)NC(=O)NC1c1ccc(C)cc1C` (stereo not drawn) the figure was 609 s; with `COc1ccc(CNC(=O)c2ccc3c(=O)n(-c4ccccc4)c(N4CCCC4)nc3c2)c(OC)c1`, 879 s; with `Cc1ccc(-n2ccc(=O)c(-c3nc(-c4ccccc4Br)no3)n2)cc1`, 950 s.
With `OCC1CN(c2ncccn2)CC12CCN(Cc1cc(Cl)ccc1F)CC2` (stereo not drawn) the figure was 577 s.
The molecule `Cn1nc(-c2nnc(-c3ccccc3)o2)c2c1CCN(S(=O)(=O)c1ccc(Cl)cc1)C2` had an RP-LC retention time of 992 s.
In the case of `CCCN1CCN(C(=O)Cn2nc(C)c3sc(CC)nc3c2=O)CC1` it was 577 s; in that of `Cc1ccc(CNC(=O)C2(C)CN(S(C)(=O)=O)CC(=O)N2c2ccc(C)c(C)c2)cc1` (stereo not drawn), 807 s; in that of `Cc1ccc(/C=C/c2nc(-c3cccc(-c4ccnn4C)c3)no2)cc1`, 1270 s.
In turn, `COc1ccccc1-c1nc(-c2ccc3c(c2)ncn3CCN2CCCC2)no1` came in with an RP-LC retention time of 797 s.
In the case of `COC1CCC12CCN(S(=O)(=O)c1ccc(C)cc1)CC2` (stereo not drawn) it was 1020 s; in that of `Cc1oc2nc3c(c(=O)n(CC(=O)OCc4ccccc4)c(=O)n3C)n2c1C`, 840 s.
In the case of `O=C(CSc1cc(-n2ccc(C(=O)NC3CC3)n2)ncn1)Nc1ccc(Cl)cc1F` it was 867 s; in that of `COc1ccc(-c2ccc(N3CCN(C(=O)c4cnc5ccccc5n4)CC3)nn2)cc1`, 615 s; in that of `COC(=O)c1ccccc1NC(=O)Cc1csc(Nc2ccccn2)n1`, 703 s.
`Cc1cccc(N2CCN(C(=O)C3CCN(C(=O)C4Sc5ccccc5NC4=O)CC3)CC2)c1C` (stereo not drawn) returned an RP-LC retention time of 918 s.
On to `COCCNC(=O)c1ccc2nc(CCc3ccc(NC(C)=O)cc3)[nH]c2c1`, for which the RP-LC retention time is 573 s.
With `NC(N)=NCCC[C@H](NC(=O)[C@@H]1CCCN1C(=O)[C@H](N)Cc1ccccc1)C(=O)CCl`, the RP-LC retention time turned out to be 1100 s.
The molecule `Cc1noc(C)c1CN1CC2(CCCCC2)CC1COc1ccncc1` (stereo not drawn) had an RP-LC retention time of 637 s.
`CCCNC(=O)N1CCC2(CC1)C(=O)N(C)c1ccccc12` came in with an RP-LC retention time of 708 s.
In the case of `CN1C(=O)c2cc(C(=O)NC3CCCCC3)nn2CC1(C)C(=O)NCc1ccccc1` (stereo not drawn) it was 758 s; in that of `O=C(C1=CN(c2ccccc2F)c2cc(Cl)ccc2S1(=O)=O)N1CCCC1`, 842 s; in that of `O=C(NCCn1cccn1)c1nn(CCOc2ccccc2)c2c1CNCC2`, 600 s.
In turn, `CCNC(=O)NCC1CCN(S(=O)(=O)C2CC2)CC1` returned an RP-LC retention time of 579 s.

For the origin of these results see the METLIN SMRT retention time set (Domingo-Almenara et al. 2019).
